Source: patent US8961986B2, “Peptide composition” (Apitope Technology (Bristol) Limited, priority 2000, dated 2015)
“Also recorded” adds a separate entry of the source.

Key:
[1] = test system: experimental autoimmune encephalomyelitis (EAE); conditions: cited from earlier work
[2] = test system: 81-111-responsive T-cell line and sub-lines; experiment: Reactivity of T cell lines and clones from peptide-primed mice to MBP 81-111 region peptides; format: cell-based; conditions: TCL specific for 89-94, 92-98, 95-101
Method: In order to investigate T cell reactivity to the 81-111 region of MBP, lymph node cells from mice primed with 81-111 are stimulated with 81-111 in vitro and these cells are tested with a panel of overlapping 10-mer peptides with two residue shifts covering the 81-111 region (namely: 81-90, 83-92, 85-94, 87-96, 89-98, 91-100, 93-102, 95-104, 97-106, 99-108 and 101-111). The response pattern to peptides covering the 89-101 show stimulatory capacity for 5 adjacent peptides (N terminal 87-96 through to 95-104) reflecting the presence of at least two (and perhaps three) distinct epitopes.
In order to investigate this region further, three sub-lines are generated from the original 81-111-responsive T-cell line and these are retested with a panel of overlapping 10-mer peptides with one residue shift covering the 84-106 region. The results reveal the existence of three distinct but overlapping T cell epitopes within the 89-101 sequence: 89-94, 92-98 and 95-101 (see FIG. 14).

[3] = test system: draining lymph node cells; experiment: Tolerance experiments with 89-101 and 87-96: lymph node cell recall proliferation; format: in vivo, Mice
Method: In order to test this possibility tolerance experiments are performed with the 89-101 and 87-96 peptides (FIGS. 15a and b).
Mice received 200 μg of peptide in PBS or PBS alone intraperitoneally on days −8, −6 and −4 prior to 100 μg of peptide in complete Freunds adjuvant on day 0. After 10 days, draining lymph node cells (6×10^5 per well) were cultured in X-Vivo 15 medium supplemented with 5×10^−5M 2-mercaptoethanol and […] L-glutamine with or without antigen for 72 hours. Cultures were pulsed for the final 16 hours with 0.5 μCi ^3H.thymidine and incorporation measured using a liquid scintillation counter. Results are expressed as means counts per minute for triplicate cultures.

I-A^S = target: T1, I-A^S (Mus musculus, UniProt P06345+P14437); conditions: cited from earlier work
T1 sequence (P14437 1-233): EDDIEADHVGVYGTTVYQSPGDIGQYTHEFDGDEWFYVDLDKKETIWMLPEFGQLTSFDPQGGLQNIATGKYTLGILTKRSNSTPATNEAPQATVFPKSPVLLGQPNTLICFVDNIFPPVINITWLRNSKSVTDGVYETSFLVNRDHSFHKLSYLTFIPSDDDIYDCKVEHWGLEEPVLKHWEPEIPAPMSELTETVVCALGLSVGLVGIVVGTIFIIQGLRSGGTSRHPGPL
T1 sequence (P06345 28-263): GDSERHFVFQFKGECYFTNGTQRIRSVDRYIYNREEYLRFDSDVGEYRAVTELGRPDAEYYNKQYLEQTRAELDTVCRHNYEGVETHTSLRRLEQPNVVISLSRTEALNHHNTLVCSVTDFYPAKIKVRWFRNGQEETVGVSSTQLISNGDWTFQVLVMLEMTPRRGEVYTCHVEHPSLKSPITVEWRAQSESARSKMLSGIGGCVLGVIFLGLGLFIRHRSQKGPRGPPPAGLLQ

[4] = test system: fixed Mgar (HLA-DR2+ve) APC presenting to T cells from DR2:MBP 82-100 transgenic mouse; experiment: Antigen-presentation assay using an APIPS (fixed APC) with T cells from DR2:MBP82-100 transgenic mouse; format: cell-based; conditions: live or p-formaldehyde-fixed Mgar cells, 72 h
Method: Presentation of peptides to T cells isolated from DR2:MBP82-100 transgenic mouse was essentially as described above except APC were plated at 5×10^5 cells per well, T cells were plated at 1×10^5 cells per well, and incubation was allowed to proceed for 72 h prior to the addition of [^3H]-thymidine.
For any given epitope, there may exist one or more apitopes, capable of being presented to APC without further processing. The presence of apitopes within two regions of MBP is investigated by incubating live or p-formaldehyde-fixed Mgar (HLA-DR2+ve) cells are incubated with overlapping peptides in serum from MBP regions 77-100 (FIG. 12) and 125-148 (FIG. 13) or in serum alone. T cells were added and after 72 h (FIG. 12) or after 48 h (FIG. 13) the T cell proliferative response was measured by ^3H-thymidine uptake. For MBP 77-100, the T cells are isolated from a DR2:MBP 82-100 transgenic mouse, whereas for MBP 130-144 the T cell clone MS17:A3 is used.

HLA-DR2 = HLA-DR2 binding of cocktail peptides; parameters: species or system human
[5] = test system: splenocytes from double transgenic mice; experiment: Induction of tolerance with Apitope MS7 in HLA:DR2 / TCR MBP 82-100 double-transgenic mice, splenocyte proliferation; format: in vivo
Method: (§1) Groups of 6 or 7 age (8-12 weeks) and sex matched double transgenic mice were used. In the first experiment one group was treated ten times intranasally with 100 μg Apitope MS7 in […] at regular intervals over a period of three weeks. The control group received PBS alone. In the second experiment the same amount of peptide was given by subcutaneous/intradermal administration in […] PBS. The control group received the same volume of PBS.
Three days after the last administration of peptide or PBS, the spleens were harvested and cell suspensions prepared. The splenocytes were incubation with 0.5 or 5 μg/ml Apitope MS7, and assessed for proliferation by [^3H]-Thymidine incorporation after 48, 72 and 96 hours of culture. Results are expressed as stimulation indices (SI=counts per minute (cpm) of culture containing antigen/counts per minute without antigen).

[6] = test system: MBP-specific T cell clones; experiment: T cell clone (TCC) proliferation assay, fine mapping of MBP epitopes; format: cell-based, human; conditions: TCC from MS patients and healthy individuals, proliferative response
Method: MBP-specific T cell lines (TCL) are generated from 8 MS patients and 2 healthy control donors. PBMC from each subject are separated as described above and plated out at 1×10^6 cells/ml in 6-well plates in the presence of MBP (50 μg/ml); a portion of PBMC from each subject is regularly frozen and stored for subsequent restimulations. Seven days later the cells are fed with fresh medium containing 2% IL-2 (Lymphocult-HT; Biotest LTD., Birmingham, UK), and on day 12 of culture all cells are restimulated with antigen, IL-2 and irradiated (2500 Rad) autologous PBMC as a source of antigen presenting cells (APC), at a cell ratio of 1T cell:5 APC. Cells are expanded in IL-2 every 3-4 days, and on day 14 are restimulated with antigen, IL-2 and PBMC, as described above. On the day of the first restimulation cells are examined for specific proliferation to MBP. Briefly, 2×10^4 T cells and 1×10^5 irradiated autologous PBMC are cultured in triplicate, in 96-well round-bottom plates, in the presence of MBP. Cells are cultured for 2 days and pulsed with (^3H)-Thymidine at 0.4 μCi/well during the last 18 hours of the culture. Cells are then harvested as described above, and a TCL is considered to be MBP-specific with a δcpm>1000 and a SI>3.
Following 3 restimulation/expansion cycles TCL are cloned using PHA (Sigma, Poole, Dorset, UK)) in the presence of autologous irradiated PBMC as APC. T cells are plated under limiting dilution conditions at 0.1 cell/well, 0.3 cell/well and 1 cell/well and cultured in Terasaki plates (Nunc International, Costar) with 1×10^4 irradiated PBMC, 5 μg/ml PHA, and 2% IL-2. After 10-12 days, growth-positive wells are expanded onto 96-well round-bottom plates, using 1×10^5 irradiated PBMC, 5 μg/ml PHA and IL-2. Three days later wells are fed with fresh medium containing IL-2, and on day 7 the clones are expanded onto 48-well plates using 5×10^5 irradiated PBMC, PHA and IL-2; at this point clones are tested in proliferation assays for specific responses to MBP. MBP-specific clones are expanded a week later onto 24-well plates, using 1×10^6 irradiated PBMC with PHA or Dynabeads (Dynal, UK) and IL-2. The clones are maintained in 24-well plates using a 7-10 day restimulation/expansion cycle, essentially as described above. The ability of T cell clones (TCC) to recognize the panel of MBP peptides is tested by proliferation assays, as described above.
TCC are generated from 8 MS patients and 2 healthy individuals, and used to clarify the fine specificity of the peptide regions identified in the kinetic response assay. The specificity of each TCC is tested by its proliferative response to the panel of 15-mer peptides. Clone SD:A7 recognised region 1-24, and within this region this TCC responded to a.a. 5-19. Region 30-54 is recognised by 4 clones (MS49:D3, MS49:C8, MS49:A8, MS49:B6) and the epitope within this region is 30-44. […] Five clones (MS43:A7, MS41:B6, MS41:A2, MS41:C6, N5:8) recognize a.a. 83-99 which is contained in region 75-99. One patient produced TCC specific for a.a. 110-124 (MS60:A2, MS60:B3), contained within the 105-129 pool, and another TCC from the same patient is specific to 130-144 (MS60:E1), found within the 120-144 region. Five individuals produce clones which recognize epitopes within the region 135-159: MS60:F7, MS60:D1, MS59:F1 and N5:19 recognizes a.a. 140-154; MS57:A1 is specific to 140-149, and TCC MS17:A3 responds to sequence 130-144. […] Lastly, region 150-170 is recognized by 2 clones specific to a.a. 156-169.

[7] = test system: splenocytes from double transgenic mice; experiment: Induction of tolerance with Apitope MS7 in double-transgenic mice, splenocyte cytokine ELISA; format: in vivo; conditions: 48 hr cultures; subcutaneous/intradermal treatment vs PBS
Method: as §1
In the second experiment, where tolerance induction was induced via the subcutaneous/intradermal route, cell culture supernatants from the splenocytes were collected at 48 and 72 hrs of culture, and assayed for the presence of IFN-γ and interleukin-2 (IL-2) using an enzyme linked immunosorbant assay (ELISA).

[8] = test system: MHC class I or II molecule; conditions: cited from earlier work
[9] = test system: lymphocytes from HLA:DR2 (DRB1*1501) transgenic mice; experiment: Induction of tolerance with Apitope MS6 in HLA:DR2 transgenic mouse, lymph node cell proliferation; format: in vivo
Method: HLA:DR2 transgenic mice aged 8-12 weeks were used in the study. The mice were tolerized by pre-treatment with 100 μg of Apitope MS6 in […] phosphate buffered saline (PBS) or […] alone, by intranasal administration on days −8, −6 and −4 prior to immunisation on day 0.
Following tolerization, mice were immunised subcutaneously with […] an emulsion containing an equal volume of Complete Freund's Adjuvant (CFA) and PBS containing 200 μg of Apitope MS6 and 400 μg heat-killed Mycobacterium tuberculosis. A control group of mice, previously tolerized with PBS intranasally, were immunised without peptide.
At 10 days post subcutaneous immunisation, draining popliteal and inguinal lymph nodes were removed and T-cell activation was assessed by assaying the proliferation of T-cells in response to various concentrations of Apitope MS6. Proliferation was measured by [^3H]-Thymidine incorporation, and expressed as the stimulation index (SI=corrected counts per minute (ccpm) culture containing peptide/ccpm culture without peptide).

Row | Substance | inducing tolerance when administered in solution ([1]; Anderton and Wraith (1998)) | prevention of / protection against EAE by peptide in soluble form ([1]; EAE induced with whole myelin or the 89-101 peptide) | immunogenicity: priming for T cell reactivity and induction of EAE ([1]; after immunisation) | response of the three epitope-specific T cell lines (TCL) to the peptide [2] | effect of peptide as tolerogen on recall responses after priming with 87-96 ([3]; 200 μg i.p. days -8, -6, -4, priming 87-96 in CFA day 0, lymph node cells day 10) | in vitro recall response after priming with 87-96 ([3]; PBS pre-treated mice, lymph node cells) | binding affinity for I-A^S (I-A^S) | apitope within MBP region 77-100 [4] | HLA-DR2 binding (HLA-DR2) | mean SI of splenocyte proliferation, intranasal treatment ([5]; 72 hrs, cultures with 5 μg/ml 83-99, PBS control mean SI 89) | mean SI of splenocyte proliferation, subcutaneous treatment ([5]; PBS treated animals mean SI 124) | splenocyte proliferation after treatment, both routes ([5]; intranasal and subcutaneous/intradermal) | T cell clones (TCC) recognising the peptide [6] | IFNγ secretion in splenocyte culture supernatants [7] | IL-2 secretion in splenocyte culture supernatants [7] | identified as apitope in WO 03/064464 [8] | SI median of lymphocyte proliferation after intranasal pre-treatment ([9]; Group B, 100 μg intranasal days -8, -6, -4, recall peptide 150 μg/ml (PBS group SI median 2.5 to 10)) | tolerance induction in lymphocytes from HLA-DR2 mice ([9]; intranasal pre-treatment) | T cell clones (TCC) recognising the peptide ([6]; listed as 140-154)
1 | MBP 89-101: myelin basic protein (MBP) peptide 89-101, immunodominant antigen, not tolerogenic (PHLIRLFSRDAPG; UniProt P02686 89-101, looked up, fragment) | ineffective at inducing tolerance | does not prevent; also recorded: fails to protect against EAE | very effective immunogen | All three TCL respond | failed to inhibit recall responses to either 87-96 or 89-101 | weaker response | relatively high affinity |  |  |  |  |  |  |  |  |  |  |  | 
2 | H-Glu-Asn-Pro-Val-Val-His-Phe-Phe-Lys-Asn-Ile-Val-Thr-Pro-Arg-Thr-Pro-NH2 (H-ENPVVHFFKNIVTPRTP-NH2) [MBP 83-99] |  |  |  |  |  |  |  | shown to act as apitopes | HLA-DR2 binding | 17 | 49 | striking reduction in proliferation | Five | impressive reduction in secretion | impressive reduction in secretion |  |  |  | 
3 | H-Gly-Phe-Lys-Gly-Val-Asp-Ala-Gln-Gly-Thr-Leu-Ser-Lys-Ile-Phe-NH2 (H-GFKGVDAQGTLSKIF-NH2) [MBP 140-154] |  |  |  |  |  |  |  |  | HLA-DR2 binding |  |  |  | responded |  |  | apitopes | 3 | has induced tolerance | recognizes
